Results from patent US20250382298A1, “NITROGEN-CONTAINING COMPOUND AND USE THEREOF” (SUZHOU GENHOUSE BIO CO., LTD., priority 2022, published 2025).
Read-outs that look alike come from different tables or passages of the source.

Key:
OVCAR3 cells [1] = assay: Detection of OVCAR3 cell proliferation activity by CTG method; assay type: cell-based; details: Homo sapiens, OVCAR-3, 168 h, CellTiter-Glo, 7 days
From the text: (§1) This assay can be used to examine the potency of compounds in inhibiting the proliferation of tumor cells (OVCAR3, HT-29, BT-549, HCT-116). A lower IC50 value indicates high potency of the compound as a KIF18A inhibitor in the following assay setup,
1640 medium; fetal bovine serum; penicillin/streptomycin antibiotics purchased from Wisent; CellTiter-Glo (chemiluminescence detection reagent for cell viability) reagent purchased from Promega; OVCAR3 cell line purchased from Nanjing Cobioer Biosciences Co., Ltd.; Nivo multimode microplate reader (PerkinElmer),
OVCAR3 cells were seeded into a white 96-well plate, with 80 μL of cell suspension containing 2000 OVCAR3 cells added to each well. The cell plate was incubated in a CO2 incubator overnight.
A test compound was 5-fold diluted to the 8th concentration (i.e., from 2 mM to […]) using a multichannel pipette, with duplicate wells set up. To an intermediate plate was added 78 μL of medium, and the serially diluted compound was transferred to the corresponding wells of the intermediate plate at 2 μL/well. The mixture was mixed well and then transferred to the cell plate at 20 μL/well. The concentration of the compound transferred to the cell plate ranged from 10 μM to 0.026 nM. The cell plate was incubated in a CO2 incubator for 7 days. Another cell plate was prepared and read for signal values on the day of compound addition, and these values were used as the maximum values (the Max value in the equation below) in data analysis. To this cell plate was added the chemiluminescence detection reagent for cell viability at 25 μL/well, and the luminescence signals were stabilized by incubation at room temperature for 10 min. Readings were taken using the multimode microplate reader.
To the cell plate was added the chemiluminescence detection reagent for cell viability at 25 μL/well, and the luminescence signals were stabilized by incubation at room temperature for 10 mm. Readings were taken using the multimode microplate reader, […]

BT-549 cells = assay: Detection of cell proliferation activity by CCK8 method (BT-549); assay type: cell-based; details: CCK8, 96 h
From the text: as §1
(§2) McCoy's 5A medium purchased from Sangon Biotech; CCK8 kit purchased from Beyotime; OVCAR3, HT-29, HCT-116, and BT-549 cells purchased from Shanghai Fuheng Biotechnology Co., Ltd.; multimode microplate reader (Thermo).
(§3) Cells at the logarithmic growth phase were taken, digested with a cell lysis buffer (trypsin), centrifuged, counted, and seeded into a 96-well plate at an appropriate cell density (BT549: 1500 cells/well in 1640 medium. HT-29 and HCT-116: 2000 cells/well in McCoy's 5A medium), with 180 μL per well, for a total of 60 wells. The surrounding wells were filled with an equal amount of PBS to prevent water evaporation from the edge wells. The next day after cell plating, the test compounds at different concentration gradients (with an initial final concentration of 10 μM, diluted in a 1:5 gradient to obtain 9 concentration gradients) were added to the wells. Three replicate wells were set up for each concentration point, and a corresponding DMSO negative control group was also set up. Detection: After 96 h of drug treatment, the test cell culture plate was removed from the incubator. All the liquid in the 96-well plate was aspirated, and 100 μL of medium containing 10% CCK8 solution was added to each well. The plate was then incubated at 37° C. for 2 h (the OD450 of the DMSO group reached 1.5 or more), and the absorbance at 450 nm was measured using a microplate reader
(§4) After the background value was subtracted from the measurement for each well, the inhibition rate was calculated. Inhibition Rate (%)=(1−Sample/Vehicle)×100. Sample is the luminescence value of the drug treatment group, and Vehicle is the luminescence value of the DMSO control group. A sigmoidal dose-survival rate curve was plotted using a non-linear regression model in the GraphPad Prism 7.0 software, and the IC50 values were calculated.

HT-29 cells [2] = assay: Mitotic index analysis, pH3 expression in HT-29 cells; assay type: cell-based, human; details: Homo sapiens, 24 h treatment
Method: (§5) HCT-116 and HT-29 cells at the logarithmic growth phase were taken, digested with a cell lysis buffer (trypsin), centrifuged, counted, and seeded into a 96-well plate at an appropriate cell density (20000 cells/well), with 100 μL per well. The surrounding wells were filled with an appropriate amount of PBS to prevent water evaporation. The next day, the cells were treated with the compounds at different concentrations (with a starting concentration of 10 μM, 3-fold diluted to obtain 9 concentration gradients). After 24 h, the medium was aspirated, and the cells were washed twice with 100 μL of PBS. The cells were then fixed with 4% paraformaldehyde and incubated at room temperature for 15 min. The fixative solution was discarded, and the cells were washed with PBS. Then, 150 μL of specialized blocking solution (containing 1% Triton-100) was added to each well for blocking at room temperature for 2 h, and the plate was washed with PBS to remove excess blocking solution. Anti-phistone H3 (pH3) was diluted at a ratio of 1:1000 with a blocking solution containing 0.033% Triton-100, and a blank control group was set up. Then, incubation was performed at 4° C. overnight. The next day, the plate was washed twice with 1×PBST. Anti-rabbit-IgG (H+L) (CST) and DRAQ5 (Thermofisher) were each diluted at an appropriate ratio with a blocking solution containing 0.033% Triton-100 (secondary antibody: 1:2000; DRAQ5: 1:10000). Then, incubation was performed at room temperature for 2 h. The plate was washed twice with 1×PBST and once with PBS. Fluorescence signals at 700 nm and 800 nm were detected using a Li—COR Odyssey two-color near-infrared laser imager. Calculation was performed as follows: pH3 expression (%)=(Cmpd dose/DMSO control)×100. Cmpd dose is the value of the drug treatment group, and DMSO control is the value of the DMSO control group. The EC50 values were determined by fitting using the GraphPad Prism 7.0 software.

HT-29 cells [3] = assay: Detection of cell proliferation activity by CCK8 method (HT-29); assay type: cell-based, human; details: Homo sapiens, CCK8, 96 h
From the text: as §1, §2, §3, §4

HCT-116 cells [4] = assay: Detection of cell proliferation activity by CCK8 method (HCT-116); assay type: cell-based; details: CCK8, 96 h
From the text: as §1, §2, §3, §4

HCT-116 cells [5] = assay: Mitotic index analysis, pH3 expression in HCT-116 cells; assay type: cell-based; details: 24 h treatment
Method: as §5

OVCAR3 cells [6] = assay: Detection of cell proliferation activity by CCK8 method (OVCAR3); assay type: cell-based
From the text: as §1, §2, §3, §4

[7] = Pharmacokinetic test in mice; assay type: in vivo; details: BALB/c mice; for AUC / Cmax / half-life: mouse, plasma; for half-life: read-out: t½ (converted)
Method: In this example, the pharmacokinetic behavior of the compounds after intravenous injection (IV) and intragastric (PO) administration in BALB/c mice was tested.
On the day of administration, mice were weighed for actual body weight and the administration volume was calculated. Each compound was tested in two groups with 9 mice in each group; one group was subjected to administration by single intravenous injection, and the other group of mice was subjected to single intragastric administration. Whole blood samples were collected via the orbit at prescribed time points (0.25 h, 0.5 h, 1 h, 2 h, 4 h, 8 h, and 24 h after administration). After blood sample collection, the samples were immediately transferred to labeled commercial sample tubes containing K2-EDTA (0.85-1.15 mg), followed by centrifugation (3200×g, 4° C., 10 min) and plasma collection. The plasma was transferred to a pre-cooled centrifuge tube, frozen in dry ice, and then stored in an ultra-low temperature freezer at −60° C. or lower until the LC-MS/MS analysis.
Plasma concentrations were determined by the LC-MS/MS method. Plasma drug concentration data for the compounds were processed using a non-compartmental model in the WinNonlin Version 6.3 (Pharsight, Mountain View, CA) pharmacokinetic software. The relevant pharmacokinetic parameters were calculated by a linear-log trapezoidal method.

KIF18A = KIF18A (Homo sapiens (Human), UniProt Q8NI77); assay: KIF18A enzymatic activity inhibition, ADP-Glo kit; assay type: biochemical; details: 4 nM KIF18A, 30 μM ATP
Method: In this experiment, an ADP-Glo kit was used to detect the inhibitory activity of the compounds against KIF18A. Each compound was prepared into a 10 mM stock solution with DMSO, which was then diluted at 1:5 to obtain 9 gradients with the initial final concentration set at 10 μM. Meanwhile, a control group and a blank group were also set up. The reaction buffer consisted of 15 mM Tris (pH 7.5), 10 mM MgCl2, and 0.01% Pluronic F-68. 4 nM KIF18A (1467) and the test compound were added to a 384-well plate and incubated at 37° C. for 20 mm. Then, 30 μM ATP was added to initiate the enzymatic reaction, and the plate was incubated at room temperature for 15 min. Finally, the ADP-Glo reagent was added to detect the luminescence intensity, where the luminescence intensity is directly proportional to the ADP content. Inhibition rate (%)=[…]. Sample signal is the value of the compound group, and DMSO signal is the value of the DMSO control group. Then, the inhibition rate at each concentration was calculated, and the IC50 was determined by fitting using the GraphPadPrism 7.0 software.

[8] = Homo sapiens, OVCAR-3, CCK8, 96 h

Chain of KIF18A (Q8NI77 1-467): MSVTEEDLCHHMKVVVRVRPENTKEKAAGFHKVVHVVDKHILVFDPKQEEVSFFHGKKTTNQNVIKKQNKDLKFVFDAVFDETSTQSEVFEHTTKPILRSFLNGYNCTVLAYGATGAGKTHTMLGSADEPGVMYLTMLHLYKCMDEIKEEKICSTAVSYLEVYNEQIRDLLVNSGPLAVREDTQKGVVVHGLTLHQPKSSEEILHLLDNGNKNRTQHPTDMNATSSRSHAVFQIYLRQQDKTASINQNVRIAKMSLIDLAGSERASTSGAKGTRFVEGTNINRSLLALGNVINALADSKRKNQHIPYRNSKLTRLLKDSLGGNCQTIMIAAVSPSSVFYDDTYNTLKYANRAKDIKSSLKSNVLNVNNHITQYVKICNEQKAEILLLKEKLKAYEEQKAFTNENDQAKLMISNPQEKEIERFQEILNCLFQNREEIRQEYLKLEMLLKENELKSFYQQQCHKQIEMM

IC50 (OVCAR3 cells [1]) | IC50 (BT-549 cells; Homo sapiens) | EC50 (HT-29 cells [2]) | IC50 (HT-29 cells [3]) | IC50 (HCT-116 cells [4]; Homo sapiens) | EC50 (HCT-116 cells [5]; Homo sapiens) | IC50 (OVCAR3 cells [6]; [8]) | F ([7]; PO @30mpk) | AUC ([7]; 30 mg/kg, PO @30mpk) | Cmax ([7]; 30 mg/kg, PO @30mpk) | half-life ([7]; 30 mg/kg, PO @30mpk) | F ([7]; PO @5mpk) | AUC ([7]; 5 mg/kg, PO @5mpk) | Cmax ([7]; 5 mg/kg, PO @5mpk) | half-life ([7]; 5 mg/kg, PO @5mpk) | Structure (SMILES) | IC50 (BT-549 cells) | IC50 (HCT-116 cells [4]) | IC50 (KIF18A) | EC50 (HCT-116 cells [5]) | IC50 (OVCAR3 cells [6]; CCK8, 96 h)
67.6 nM | 111 nM | 64 nM | 93.8 nM | > 10 µM | > 10 µM | 41.8 nM | – | – | – | – | – | – | – | – | O=C(Nc1cn2ccnc2c(N2CCC3(CC2)CC3)n1)c1ccc(NS(=O)(=O)CCO)cc1N1CCC2(CC1)CC2 [Compound 31] | – | – | – | – | –
29.9 nM | 46.1 nM | 61.8 nM | 45.3 nM | > 10 µM | > 10 µM | 22.4 nM | – | – | – | – | – | – | – | – | CS(=O)(=O)Nc1ccc(C(=O)Nc2cc3cccnc3c(N3CCC(F)(F)CC3)n2)c(N2CCC3(CC2)CC3)c1 [Compound 32] | – | – | – | – | –
75 nM | 118 nM | 58.5 nM | 84.2 nM | > 10 µM | > 10 µM | 53.3 nM | 108% | 126 µM·h | 6.31 µM | 8040 min | – | – | – | – | CS(=O)(=O)Nc1ccc(C(=O)Nc2cc3cccnc3c(N3CCC(F)(F)CC3)n2)c(N2CC3CCC(C3)C2)c1 [Compound 33] | – | – | – | – | –
– | – | – | – | – | – | – | – | – | – | – | – | – | – | – | O=C(Nc1cn2ccnc2c(N2CCC(F)(F)CC2)n1)c1ncc(NS(=O)(=O)CCO)cc1N1CCC2(CC1)CC2 [Compound 37] | 611 nM | > 10 µM | 11.3 nM | > 10 µM | 234 nM
– | 54.7 nM | 13.7 nM | 35.7 nM | > 10 µM | > 10 µM | 26.1 nM | 67% | 272 µM·h | 14.2 µM | 3740 min | – | – | – | – | O=C(Nc1cn2c(F)cnc2c(N2CCC(F)(F)CC2)n1)c1ccc(NS(=O)(=O)CCO)cc1N1CC2CCC(C2)C1 [Compound 51] | – | – | – | – | –
– | 170 nM | 26.7 nM | 44.7 nM | > 10 µM | > 10 µM | 32.8 nM | 16% | 78.3 µM·h | 4.56 µM | 780 min | – | – | – | – | CS(=O)(=O)Nc1ccc(C(=O)Nc2cn3ncnc3c(N3CCC(F)(F)CC3)n2)c(N2CC3CCC(C3)C2)c1 [Compound 53] | – | – | – | – | –
– | 54.4 nM | 4.6 nM | 12.7 nM | > 10 µM | > 10 µM | 6.8 nM | 109% | 380 µM·h | 25.8 µM | 468 min | – | – | – | – | Cn1ncc2cc(NC(=O)c3ccc(NS(=O)(=O)CCO)cc3N3CC4CCC(C4)C3)nc(N3CCC(F)(F)CC3)c21 [Compound 55] | – | – | – | – | –
– | 330 nM | 72.4 nM | 141 nM | > 10 µM | > 10 µM | 66.6 nM | – | – | – | – | 175% | 66.3 µM·h | 5.34 µM | 360 min | CS(=O)(=O)Nc1ccc(C(=O)Nc2cc3nccnc3c(N3CCC(F)(F)CC3)n2)c(N2CC3CCC(C3)C2)c1 [Compound 72] | – | – | – | – | –
